Values quoted from earlier work, collected in patent publication US20250066691A1, “SOLVENT-BASED DETERGENT COMPOSITIONS AND METHODS FOR HYDROPHOBIC SOIL REMOVAL” (ECOLAB USA INC., priority 2023, published 2025).
Structures can show the parent of a compound that is named as a salt.

Settings: obtained from PubChem

| Compound | LogP | Topological Polar Surface Area (Å^2) |
| --- | --- | --- |
| CCCCC(CC)COCCO (stereo not shown) [2-2(2-Ethylhexyloxy)ethanol] | 2.5 | 29.5 Å^2 |
| CCCCC(CC)COC(=O)[C@H](C)O (stereo partly drawn) [2-Ethylhexyl Lactate, 2-Ethylhexyl L-Lactate] | 3 | 46.5 Å^2 |
| CCCCCCOCCOCCO [Diethylene glycol monohexyl ether] | – | 38.7 Å^2 |
| C=C(C)[C@H]1CC=C(C)CC1 [Limonene] | 3.4 | 0 Å^2 |
| CC(O)COc1ccccc1 (stereo not shown) [Propylene glycol phenyl ether] | 1.7 | 38.7 Å^2 |
| Cc1ccccc1 [Toluene] | – | 0 Å^2 |
| CCCCOC(C)COC(C)COC(C)CO (stereo not shown) [Tripropylene glycol butyl ether] | 2.9 | 47.9 Å^2 |

Now from value to molecule:

| LogP | Topological Polar Surface Area (Å^2) | Compound |
| --- | --- | --- |
| – | 20.2 Å^2 | OCc1ccccc1 [Benzyl Alcohol] |
| 3.2 | 52.6 Å^2 | CC(C)COC(=O)CCCCC(=O)OCC(C)C [Diisobutyl Adipate] |
| 5.1 | 20.2 Å^2 | CCCCCCCCCCCCO [Dodecanol (Lauryl Alcohol), Dodecanol] |
| 0.2 | 46.5 Å^2 | CCOC(=O)C(C)O (stereo not shown) [Ethyl Lactate] |
| 0.2 | 78.9 Å^2 | CC(=O)OCC(COC(C)=O)OC(C)=O [Glycerol Triacetate] |
| – | 20.2 Å^2 | CCCCCCO [Hexanol] |
| – | 37.3 Å^2 | CCCCCCCC(=O)O [Octanoic acid] |
| 0.1 | 99.1 Å^2 | CCOC(=O)CC(O)(CC(=O)OCC)C(=O)OCC [Triethyl Citrate] |
